Assay results from EP4389751A1, “HETEROCYCLIC COMPOUNDS AND USES THEREOF” (Kumquat Biosciences Inc., priority 2021, dated 2024).

Legend:
[1] = target: T1, KRAS protein (His-tagged GDP-loaded G12S 1-169) (Homo sapiens, UniProt P01116, G12S); test: Covalent modification of KRAS protein, intact-protein LC-MS; type: binding; settings: 24hrs at room temperature, KRAS protein ~2 µM
T1 construct: His-tagged GDP-loaded G12S 1-169
Method: Test compounds are prepared as 10 mM stock solutions in DMSO (Fisher cat#BP231-100). KRAS protein (His-tagged GDP-loaded wildtype 1-169, His-tagged GDP-loaded G12S 1-169 or His-tagged GDP-loaded G12D 1-169) is diluted to ~2 µM in appropriate buffer (e.g., a Hepes buffer at physiological conditions). For testing KRAS modification, compounds are diluted to 50X final test concentration in DMSO in 96-well storage plates. 2 µl of the diluted 50X compounds are added to appropriate wells in the PCR plate (Fisher cat#AB-0800). […] of the stock protein solution is added to each well of the 96-well PCR plate. Reactions are mixed carefully. The plate is sealed well with aluminum plate seal, and stored in drawer at room temperature for 24hrs. 5 µl of 2% formic acid (Fisher cat#A1 17-50) in MilliQ H2O is then added to each well followed by mixing with a pipette. The plate is then resealed with aluminum seal and stored until mass spectrometry analysis.
The extent of covalent modification of KRAS proteins was determined by liquid chromatography electrospray mass spectrometry analysis of the intact proteins on a Thermo Q-Exactive Plus mass spectrometer. 20 µl of sample was injected onto a bioZen 3.6 µm Intact C4 column (Phenomenex cat#00B-4767-AN) placed in a column oven set to 40°C and separated using a suitable LC gradient from -20% to ~60% solvent B. Solvent A was 0.1% formic acid and solvent B was 0.1% formic acid in acetonitrile. HESI source settings were set to 40, 5 and 1 for the sheath, auxiliary and sweep gas flow, respectively. The spray voltage was 4 kV, and the capillary temperature was 320°C. S-lens RF level was 50 and auxiliary gas heater temperature was set to 200°C. The mass spectrometry was acquired using a scan range from 650 to 1750 m/z using positive polarity at a mass resolution of 70,000, AGC target of 1e6 ions and maximum injection time of 250ms. The recorded protein mass spectrum was deconvoluted from the raw data file using Protein Deconvolution v4.0 (Thermo). The protein mass and adduct masses were exported with their peak intensities. The peak intensities for the unmodified and modified protein were used to calculate the percent covalent modification of the KRAS protein based on the following equation: %KRAS protein modification = ((KRAS-compound) / (KRAS) + (KRAS-Compound)) *100.

K-Ras G12S = target: T2, K-Ras G12S (Homo sapiens, UniProt P01116, G12S); test: HTRF assay of the K-Ras / SOS1 interaction; type: biochemical; settings: IC50 (against K-Ras G12D) to IC50 (against K-Ras G12S)
T2 construct: made in house; host or cells: E. coli (e.g., BL21 (DE3))
How it was run: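 GST-K-Ras G12S with anti-GST-Eu donor and His-hSOS1 with anti-6His-XL665 acceptor in ~5 mM HEPES pH 7.4, ~150 mM NaCl, 1 mM DTT, 0.05% BSA, 0.0025% Igepal. Read after ~10 min or longer; IC50 from 665/620 nm ratio, duplicates at 10 µM down to 0.01 µM.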

GP2D cells = test: Cell proliferation assay (CellTiter-Glo), K-Ras G12D cells; type: cell-based; settings: GP2D cells (K-Ras G12D); read-out: Inhibition of GP2D Cells (IC50)
How it was run: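 GP2D (K-Ras G12D) cells seeded in DMEM with 2 mM glutamine and 10% FBS, then dosed next day with a dilution series (e.g., 9-point 3-fold). Viability read by CellTiter-Glo luminescence after about 5 days. IC50 from four-parameter fit.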

Structure (SMILES)	% G12S Modification at 24 hr. [1]	Ratio of IC50 KRAS G12D vs. IC50 KRAS G12S (K-Ras G12S)	IC50 (GP2D cells) [µM]
Nc1nc2c(-c3c(Cl)cc4c(N5CCCC6(CCN(C(=O)n7cncn7)C6)C5)nc(OC[C@@]56CCCN5C[C@H](F)C6)nc4c3F)ccc(F)c2s1 (stereo partly drawn) [Compound A104, (7-(7-(2-amino-7-fluorobenzo[d]thiazol-4-yl)-6-chloro-8-fluoro-2-(((2R,7aS)-2-fluorotetrahydro-1H-pyrrolizin-7a(5H)-yl)methoxy)quinazolin-4-yl)-2,7-diazaspiro[4.5]decan-2-yl)(1H-1,2,4-triazol-1-yl)methanone]	++ (++ indicates between about 1%- 20% labelling)	A (A: indicates that the ratio of IC50 against KrasG12D vs. IC50 against KrasG12S is 1-fold or greater)	1 to 10
C#Cc1c(F)ccc2cccc(-c3ccc4c(N5CCN(C(=O)n6cncn6)CC(F)(F)C5)nc(OC[C@@]56CCCN5C[C@H](F)C6)nc4c3F)c12 [Compound A107, (4-(7-(8-ethynyl-7-fluoronaphthalen-1-yl)-8-fluoro-2-(((2R,7aS)-2-fluorotetrahydro-1H-pyrrolizin-7 a(5H)-yl)methoxy)quinazolin-4-yl)-6,6-difluoro-1 ,4-diazepan-1-yl)(1H-1,2,4-triazol-1-yl)methanone]	++ (++ indicates between about 1%- 20% labelling)	A (A: indicates that the ratio of IC50 against KrasG12D vs. IC50 against KrasG12S is 1-fold or greater)	1 to 10
N#Cc1cnn(C(=O)N2CCN(c3nc(OC[C@@]45CCCN4C[C@H](F)C5)nc4c(F)c(-c5ccc(F)c6sc(N)nc56)c(Cl)cc34)CC(F)(F)C2)c1 [Compound A126, 1-(4-(7-(2-amino-7-fluorobenzo[d]thiazol-4-yl)-6-chloro-8-fluoro-2-(((2R,7aS)-2-fluorotetrahydro-1H-pyrrolizin-7a(5H)-yl)methoxy)quinazolin-4-yl)-6,6-difluoro-1,4-diazepane-1-carbonyl)-1Hpyrazole-4-carbonitrile]	+++ (+++ indicates greater than 20% labelling)	A (A: indicates that the ratio of IC50 against KrasG12D vs. IC50 against KrasG12S is 1-fold or greater)	1 to 10
Nc1nc2c(-c3c(Cl)cc4c(N5CC6CN(C(=O)n7cncn7)CC6C5)nc(OC[C@@]56CCCN5C[C@H](F)C6)nc4c3F)ccc(F)c2s1 (stereo partly drawn) [Compound A127, (5-(7-(2-amino-7-fluorobenzo[d]thiazol-4-yl)-6-chloro-8-fluoro-2-(((2R,7aS)-2-fluorotetrahydro-1H-pyrrolizin-7a(5H)-yl)methoxy)quinazolin-4-yl)hexahydropyrrolo[3,4-c]pyrrol-2(1H)-yl)(1H-1,2,4-triazol-1-yl)methanone]	++ (++ indicates between about 1%- 20% labelling)	A (A: indicates that the ratio of IC50 against KrasG12D vs. IC50 against KrasG12S is 1-fold or greater)	1 to 10
N#Cc1c(N)sc2c(F)ccc(-c3c(Cl)cc4c(N5CCOC6(CN(C(=O)n7cncn7)C6)C5)nc(OC[C@@]56CCCN5C[C@H](F)C6)nc4c3F)c12 [Compound A132, 4-(4-(2-(1H-1,2,4-triazole-1-carbonyl)-5-oxa-2,8-diazaspiro[3.5]nonan-8-yl)-6-chloro-8-fluoro-2-(((2R,7aS)-2-fluorotetrahydro-1H-pyrrolizin-7a(5H)-yl)methoxy)quinazolin-7-yl)-2-amino-7-fluorobenzo[b]thiophene-3-carbonitrile]	+++ (+++ indicates greater than 20% labelling)	A (A: indicates that the ratio of IC50 against KrasG12D vs. IC50 against KrasG12S is 1-fold or greater)	1 to 10
N#Cc1c(N)sc2c(F)ccc(-c3c(Cl)cc4c(N5CC6(CN(C(=O)n7cncn7)CCO6)C5)nc(OC[C@@]56CCCN5C[C@H](F)C6)nc4c3F)c12 [Compound A140, 4-(4-(8-(1H-1,2,4-triazole-1-carbonyl)-5-oxa-2,8-diazaspiro[3.5]nonan-2-yl)-6-chloro-8-fluoro-2-(((2R,7aS)-2-fluorotetrahydro-1H-pyrrolizin-7a(5H)-yl)methoxy)quinazolin-7-yl)-2-amino-7-fluorobenzo[b]thiophene-3-carbonitrile]	+++ (+++ indicates greater than 20% labelling)	A (A: indicates that the ratio of IC50 against KrasG12D vs. IC50 against KrasG12S is 1-fold or greater)	1 to 10
N#CC[C@H]1CN(c2nc(OC[C@@]34CCCN3C[C@H](F)C4)nc3c(F)c(-c4ccc(F)c5sc(N)nc45)c(Cl)cc23)CCN1C(=O)n1cncn1 [Compound A145, 2-((2S)-4-(7-(2-amino-7-fluorobenzo[d]thiazol-4-yl)-6-chloro-8-fluoro-2-(((2R,7aS)-2-fluorotetrahydro-1H-pyrrolizin-7a(5H)-yl)methoxy)quinazolin-4-yl)-1-(1H-1,2,4-triazole-1-carbonyl)piperazin-2-yl)acetonitrile]	+++ (+++ indicates greater than 20% labelling)	A (A: indicates that the ratio of IC50 against KrasG12D vs. IC50 against KrasG12S is 1-fold or greater)	1 to 10
CC(=O)c1c(F)ccc2cc(O)cc(-c3ccc4c(N5CCCC6(CN(C(=O)n7cncn7)C6)C5)nc(OC[C@@]56CCCN5C[C@H](F)C6)nc4c3F)c12 [Compound A154, 1-(8-(4-(2-(1H-1,2,4-triazole-1-carbonyl)-2,6-diazaspiro[3.5]nonan-6-yl)-8-fluoro-2-(((2R,7aS)-2-fluorotetrahydro-1H-pyrrolizin-7a(5H)-yl)methoxy)quinazolin-7-yl)-2-fluoro-6-hydroxynaphthalen-1-yl)ethan-1-one]	+++ (+++ indicates greater than 20% labelling)	A (A: indicates that the ratio of IC50 against KrasG12D vs. IC50 against KrasG12S is 1-fold or greater)	1 to 10
N#C[C@H]1CN(c2nc(OC[C@@]34CCCN3C[C@H](F)C4)nc3c(F)c(-c4ccc(F)c5sc(N)nc45)c(Cl)cc23)CCN1C(=O)n1cncn1 [Compound A157, (2R)-4-(7-(2-amino-7-fluorobenzo[d]thiazol-4-yl)-6-chloro-8-fluoro-2-(((2R,7aS)-2-fluorotetrahydro-1H-pyrrolizin-7a(5H)-yl)methoxy)quinazolin-4-yl)-1-(1H-1,2,4-triazole-1-carbonyl)piperazine-2-carbonitrile]	++ (++ indicates between about 1%- 20% labelling)	A (A: indicates that the ratio of IC50 against KrasG12D vs. IC50 against KrasG12S is 1-fold or greater)	1 to 10
N#Cc1c(N)sc2c(F)ccc(-c3ncc4c(N5CC6CCC(C5)N6C(=O)n5ccnc5C#N)nc(OC[C@@]56CCCN5C[C@H](F)C6)nc4c3F)c12 [Compound A165, 1-(3-(7-(2-amino-3-cyano-7-fluorobenzo[b]thiophen-4-yl)-8-fluoro-2-(((2R,7aS)-2-fluorotetrahydro-1H-pyrrolizin-7a(5H)-yl)methoxy)pyrido[4,3-d]pyrimidin-4-yl)-3,8-diazabicyclo[3.2. 1]octane-8-carbonyl)-1H-imidazole-2-carbonitrile]	++ (++ indicates between about 1%- 20% labelling)	A (A: indicates that the ratio of IC50 against KrasG12D vs. IC50 against KrasG12S is 1-fold or greater)	1 to 10
